Where a SMILES comes first, the peptide text is derived from it. [ ]: non-standard residue; d: D form.
System: electrically stimulated guinea pig ileum
Assay: In vitro assay on the electrically stimulated guinea pig ileum (Chipkin, et al.)
Type: cell-based
Conditions: potency relative to methionine-enkephalin=100
Method: Peptides were assayed for biological activity in vitro on the electrically stimulated guinea pig ileum, using the procedure described by Chipkin, et al. (Life Sciences 28:1517-1522, 1981). All potencies of the peptides in this assay are reported relative to the potency of methionine-enkephalin=100. Analgesic activity of the peptides in vivo was assayed by the tail-flick method following intracerebroventricular injection, as described in the Chipkin, et al., reference. The standard for this assay was Tyr-D-Ala-Gly-Phe-Met-amide.
*(Assay on the stimulated guinea pig ileum according to Chipkin, et al.;
standard peptide is methionineenkephalin.)

In the case of `NC(=O)[C@@H](Cc1ccccc1)NC(=O)[C@@H](N)Cc1ccc(O)cc1` [Tyr--D-Phe--NH2] (H-Tyr-[dF]-NH2), the “Relate In Vitro Potency” value is reported as 0.1.
